Test results: PubChem BioAssay (NCI)
Values joined by “and” are separate entries in the source; they are usually repeats but may differ in a detail not shown here. Equal values may be shown once.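 The compound was tested at five concentrations on cells cultured in 96-well plates, with a 48-hour exposure period. GI50 is the concentration that inhibits growth by half. TGI is the concentration that stops growth completely.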

What was measured:
Experiment in all cases: growth of human tumour cells (NCI), 48 h
OVCAR-8 ovarian = system: OVCAR-8 ovarian
M14 melanoma = system: M14 melanoma
MALME-3M melanoma = system: MALME-3M melanoma
MCF7 breast = system: MCF7 breast
ACHN renal = system: ACHN renal
KM12 colon = system: KM12 colon
MDA-MB-231 breast = system: MDA-MB-231 breast
UACC-62 melanoma = system: UACC-62 melanoma
K-562 leukemia = system: K-562 leukemia
UO-31 renal = system: UO-31 renal

SMILES | GI50 (OVCAR-8 ovarian) | TGI (OVCAR-8 ovarian) | GI50 (M14 melanoma) | TGI (M14 melanoma) | GI50 (MALME-3M melanoma) | TGI (MALME-3M melanoma) | GI50 (MCF7 breast) | TGI (MCF7 breast) | GI50 (ACHN renal) | TGI (ACHN renal) | GI50 (KM12 colon) | TGI (KM12 colon) | GI50 (MDA-MB-231 breast) | TGI (MDA-MB-231 breast) | GI50 (UACC-62 melanoma) | TGI (UACC-62 melanoma) | GI50 (K-562 leukemia) | TGI (K-562 leukemia) | GI50 (UO-31 renal) | TGI (UO-31 renal)
COc1ccc2c(c1)OCC1c3cc(OC)ccc3OC21 (centres undefined) | 80300 nM | > 100 µM | 39000 nM | > 100 µM | > 100 µM | > 100 µM | 38700 nM | > 100 µM | 53100 nM | > 100 µM | 43300 nM | > 100 µM | 46400 nM | > 100 µM | 51000 nM | > 100 µM | 56700 nM | > 100 µM | 39000 nM | > 100 µM
CC(=O)Nc1ccc(S(=O)(=O)N2C(=O)CCC2C(=O)Nc2ccccc2)cc1 (centres undefined) | 2230 nM | 19 µM | 265 nM | 12.5 µM | 3.38 µM | 18.8 µM | 730 nM | 14.7 µM | 241 nM | 14.3 µM | 214 nM | 11.3 µM | 1380 nM | 9.49 µM | 52.3 nM | 10.3 µM | 258 nM | 10.2 µM | 550 nM | 16.5 µM
Nc1c2ccccc2nc2ccccc12 | 626 nM and 3530 nM | 5.14 µM and 34.3 µM | 1700 nM and 3210 nM | 3.48 µM and 10 µM | 1.86 µM and 3.69 µM | 3.66 µM and 9.62 µM | 1620 nM and 3020 nM | 9.14 µM and 10.8 µM | 669 nM and 1890 nM | 8.61 µM and 7.19 µM | 2040 nM and 3270 nM | 7.58 µM and 14 µM | 1990 nM and 2510 nM | 6.09 µM and 8.37 µM | 1510 nM and 2420 nM | 3.45 µM and 6.88 µM | 3160 nM and 3060 nM | 12.5 µM and 25.1 µM | 1250 nM and 1600 nM | 2.75 µM and 7.34 µM
O=C(c1ccco1)c1c(C(F)(F)F)n([O-])c2cc(Cl)c(Cl)cc2[n+]1=O | 1030 nM | 6.6 µM | 715 nM | 1.46 µM | 0.824 µM | 1.81 µM | 123 nM | 0.452 µM | 443 nM | 1.11 µM | 186 nM | 0.75 µM | 843 nM | 1.77 µM | 705 nM | 1.49 µM | 173 nM | 2.87 µM | 46.5 nM | 0.211 µM
CC(C)c1c(C(=O)Nc2ccccc2)c(-c2ccccc2)c(-c2ccc(F)cc2)n1CC[C@@H](O)C[C@@H](O)CC(=O)O | 20400 nM | > 100 µM | 19100 nM | > 100 µM | 52.8 µM | > 100 µM | 27500 nM | > 100 µM | 6670 nM | > 91.2 µM | 40200 nM | > 100 µM | 1610 nM | 6.63 µM | 6590 nM | 51.5 µM | 31200 nM | > 100 µM | 30200 nM | > 100 µM
C=C1C(=O)O[C@H]2[C@H]1CC/C(COC(=O)NCc1ccc(Cn3c(=O)sn(CCCI)c3=O)cc1)=C\CC[C@@]1(C)O[C@@H]21 | 3040 nM | 9.87 µM | 1740 nM | 4.69 µM | 1.39 µM | 3.21 µM | 1410 nM | 3.24 µM | 1700 nM | 3.19 µM | 7980 nM | 24.8 µM | 1750 nM | 3.56 µM | 1410 nM | 2.88 µM | 342 nM | > 100 µM | 1520 nM | 2.94 µM
Cc1cc(C)c(CNC(=O)c2cc(Cl)c3c(c2C)O[C@@](C)(C2CCC(N(C)C)CC2)O3)c(=O)[nH]1 (some centres undefined) | > 100000 nM | > 100 µM | 33800 nM | > 100 µM | 45.3 µM | > 100 µM | 49500 nM | > 100 µM | > 100000 nM | > 100 µM | > 100000 nM | > 100 µM | 59500 nM | > 100 µM | > 100000 nM | > 100 µM | 41600 nM | > 100 µM | 45600 nM | > 100 µM
COc1cc(C(=O)N[C@@H]2CCCN(C)C2)ccc1Nc1ncc2c(n1)N(C1CCCC1)CC(C)(C)C(=O)N2C | 54.1 nM | 16.8 µM | 49.4 nM | 0.769 µM | 2.03 µM | 10.6 µM | 27.8 nM | 11.6 µM | 1550 nM | 19.4 µM | 34.3 nM | 18.3 µM | 1560 nM | 15.6 µM | 153 nM | 15.5 µM | 37.8 nM | 3.19 µM | 1960 nM | 16.1 µM
CC/C(=C\c1ccc(N(C)C)cc1)c1ccncc1 | 6160 nM | > 100 µM | 4370 nM | 54.6 µM | 4.52 µM | > 100 µM | 9310 nM | > 100 µM | 5870 nM | > 100 µM | 3840 nM | > 100 µM | 6530 nM | 80.1 µM | 5040 nM | > 100 µM | 3780 nM | > 100 µM | 6570 nM | > 100 µM
N#CSc1c[nH]c2cccc(/C=C/C(=O)/C=C(O)/C=C/c3cccc4[nH]cc(SC#N)c34)c12 | 369 nM | > 17.5 µM | 437 nM | 1.11 µM | 0.52 µM | 1.07 µM | 254 nM | 1.45 µM | 351 nM | 1.04 µM | 351 nM | 0.998 µM | 553 nM | 1.21 µM | 400 nM | 1.63 µM | 148 nM | > 33.3 µM | 197 nM | 0.652 µM
O=C(/C=C/c1c[nH]c2ccccc12)c1ccccc1O | – | 39.2 µM | – | 27 µM | – | 29.3 µM | – | 18.7 µM | – | 25.2 µM | – | 70.1 µM | – | 18.4 µM | – | 21 µM | – | > 100 µM | – | 17.6 µM
N/C(=N\O)c1cn(C2OC(CO)C(O)C2O)c2ncnc(N)c12 (centres undefined) | 186 nM | 2.59 µM | 108 nM | 0.776 µM | 0.0578 µM | 0.243 µM | 56 nM | 1.07 µM | 76.4 nM | > 35.9 µM | 188 nM | – | 197 nM | 18.9 µM | 141 nM | 0.366 µM | 281 nM | > 100 µM | 229 nM | 13.4 µM
Cc1n[nH]c(C)c1-c1c(C)n[nH]c1C | 2090 nM | 9.79 µM | 2010 nM | 5.12 µM | 1.7 µM | 4.05 µM | 1660 nM | 3.79 µM | 1520 nM | 2.88 µM | 1800 nM | 3.97 µM | 1830 nM | 4.53 µM | 1560 nM | 3.42 µM | 1940 nM | > 35.6 µM | 1310 nM | 2.7 µM
O=C1Nc2ccc(I)cc2/C1=C/c1cc(Br)c(O)c(Br)c1 | > 25000 nM and 23800 nM | > 96.5 µM | 10800 nM and 5030 nM | > 25 µM and 72.1 µM | 5.9 µM and 4.62 µM | 22.2 µM and > 64.5 µM | > 20100 nM and 15400 nM | > 82.2 µM | > 19800 nM and 21800 nM | > 85.8 µM | > 15900 nM and 12000 nM | > 25 µM and 28.7 µM | > 20400 nM and 16100 nM | > 25 µM and 44.2 µM | 11500 nM and 8430 nM | > 25 µM and 29.6 µM | > 51900 nM | > 100 µM | > 16400 nM and 18100 nM | > 25 µM and 58.9 µM
